Results taken from the Kinase Knowledgebase extract (Sharma et al. 2016).

Key:
PIK3CA (human) = PIK3CA (human) (UniProt P42336)
PIK3CB (Human) = PIK3CB (Human) (UniProt P42338)
PIK3CD (Human) = PIK3CD (Human) (UniProt O00329)
PIK3CG (human) = PIK3CG (human) (UniProt P48736)
EGFR (human) = EGFR (human) (UniProt P00533)
CDK2 (human) = CDK2 (human) (UniProt P24941); conditions: for inhibition: concentration not given here
MAPK14 (human) = MAPK14 (human) (UniProt Q16539); conditions: concentration not given here
Chain of MAPK14 (human) (Q16539 whole entry, looked up): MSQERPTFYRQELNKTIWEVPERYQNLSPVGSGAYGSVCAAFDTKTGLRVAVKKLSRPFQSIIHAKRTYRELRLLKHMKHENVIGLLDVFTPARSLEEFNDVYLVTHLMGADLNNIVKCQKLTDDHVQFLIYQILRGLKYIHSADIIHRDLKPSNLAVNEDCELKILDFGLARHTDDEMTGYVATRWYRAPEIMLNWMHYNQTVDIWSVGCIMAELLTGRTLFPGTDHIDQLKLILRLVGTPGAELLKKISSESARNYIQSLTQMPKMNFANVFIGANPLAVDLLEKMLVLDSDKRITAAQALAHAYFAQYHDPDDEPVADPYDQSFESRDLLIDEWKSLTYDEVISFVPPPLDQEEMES

Chain of PIK3CG (human) (P48736 whole entry, looked up): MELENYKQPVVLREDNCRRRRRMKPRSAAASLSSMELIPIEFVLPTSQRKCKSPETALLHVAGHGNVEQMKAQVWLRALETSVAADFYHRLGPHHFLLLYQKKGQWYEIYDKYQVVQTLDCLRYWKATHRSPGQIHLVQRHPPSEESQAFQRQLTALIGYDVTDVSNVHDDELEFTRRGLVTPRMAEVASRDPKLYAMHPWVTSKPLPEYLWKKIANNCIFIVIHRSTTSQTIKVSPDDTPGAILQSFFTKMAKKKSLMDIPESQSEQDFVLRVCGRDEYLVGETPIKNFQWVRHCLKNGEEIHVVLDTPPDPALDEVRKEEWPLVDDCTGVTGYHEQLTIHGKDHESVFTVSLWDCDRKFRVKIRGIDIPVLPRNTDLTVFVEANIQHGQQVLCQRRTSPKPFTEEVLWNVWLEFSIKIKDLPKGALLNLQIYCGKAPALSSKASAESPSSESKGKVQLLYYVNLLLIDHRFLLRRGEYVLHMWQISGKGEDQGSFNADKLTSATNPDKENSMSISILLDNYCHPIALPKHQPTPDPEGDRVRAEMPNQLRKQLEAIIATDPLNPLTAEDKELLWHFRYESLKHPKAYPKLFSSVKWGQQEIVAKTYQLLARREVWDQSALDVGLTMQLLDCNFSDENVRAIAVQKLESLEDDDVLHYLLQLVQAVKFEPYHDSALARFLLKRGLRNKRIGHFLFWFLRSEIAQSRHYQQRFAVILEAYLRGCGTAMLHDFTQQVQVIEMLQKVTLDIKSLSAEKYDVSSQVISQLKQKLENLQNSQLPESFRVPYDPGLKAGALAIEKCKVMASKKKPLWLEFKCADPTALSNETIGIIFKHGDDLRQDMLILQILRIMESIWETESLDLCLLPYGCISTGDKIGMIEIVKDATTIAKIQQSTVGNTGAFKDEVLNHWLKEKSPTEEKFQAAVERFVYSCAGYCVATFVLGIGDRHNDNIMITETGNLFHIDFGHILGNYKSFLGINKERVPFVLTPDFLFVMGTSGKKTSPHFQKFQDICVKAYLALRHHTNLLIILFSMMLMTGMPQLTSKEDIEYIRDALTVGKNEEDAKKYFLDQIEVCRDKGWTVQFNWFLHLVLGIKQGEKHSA
Chain of PIK3CB (Human) (P42338 whole entry, looked up): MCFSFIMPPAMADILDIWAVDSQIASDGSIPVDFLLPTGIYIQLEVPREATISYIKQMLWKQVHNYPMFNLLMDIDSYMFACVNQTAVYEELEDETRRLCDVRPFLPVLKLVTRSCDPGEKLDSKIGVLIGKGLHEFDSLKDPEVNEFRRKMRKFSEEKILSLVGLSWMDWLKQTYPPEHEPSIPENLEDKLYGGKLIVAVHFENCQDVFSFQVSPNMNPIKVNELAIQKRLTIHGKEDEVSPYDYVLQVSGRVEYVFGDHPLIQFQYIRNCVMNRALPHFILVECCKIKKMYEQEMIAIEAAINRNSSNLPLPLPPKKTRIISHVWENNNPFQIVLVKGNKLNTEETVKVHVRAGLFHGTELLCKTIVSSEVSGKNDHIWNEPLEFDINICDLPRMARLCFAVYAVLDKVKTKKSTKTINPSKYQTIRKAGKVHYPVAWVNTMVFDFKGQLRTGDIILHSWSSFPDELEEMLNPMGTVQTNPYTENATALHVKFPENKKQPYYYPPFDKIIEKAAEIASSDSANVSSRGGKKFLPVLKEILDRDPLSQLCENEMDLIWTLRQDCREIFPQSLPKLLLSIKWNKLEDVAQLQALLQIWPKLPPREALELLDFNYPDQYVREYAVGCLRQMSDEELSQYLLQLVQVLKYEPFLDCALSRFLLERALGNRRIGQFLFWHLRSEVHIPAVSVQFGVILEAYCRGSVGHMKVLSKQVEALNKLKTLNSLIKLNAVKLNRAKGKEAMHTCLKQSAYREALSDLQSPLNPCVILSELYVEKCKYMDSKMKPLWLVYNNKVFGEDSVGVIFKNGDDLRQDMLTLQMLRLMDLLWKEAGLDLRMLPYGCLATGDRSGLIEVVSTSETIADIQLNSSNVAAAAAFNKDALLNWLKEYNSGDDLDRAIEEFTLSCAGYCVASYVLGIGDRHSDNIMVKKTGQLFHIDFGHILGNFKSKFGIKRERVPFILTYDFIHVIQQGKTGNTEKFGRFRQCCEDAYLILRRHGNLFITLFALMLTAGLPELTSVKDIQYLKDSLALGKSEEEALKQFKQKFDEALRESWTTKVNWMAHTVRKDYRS
Chain of PIK3CA (human) (P42336 whole entry, looked up): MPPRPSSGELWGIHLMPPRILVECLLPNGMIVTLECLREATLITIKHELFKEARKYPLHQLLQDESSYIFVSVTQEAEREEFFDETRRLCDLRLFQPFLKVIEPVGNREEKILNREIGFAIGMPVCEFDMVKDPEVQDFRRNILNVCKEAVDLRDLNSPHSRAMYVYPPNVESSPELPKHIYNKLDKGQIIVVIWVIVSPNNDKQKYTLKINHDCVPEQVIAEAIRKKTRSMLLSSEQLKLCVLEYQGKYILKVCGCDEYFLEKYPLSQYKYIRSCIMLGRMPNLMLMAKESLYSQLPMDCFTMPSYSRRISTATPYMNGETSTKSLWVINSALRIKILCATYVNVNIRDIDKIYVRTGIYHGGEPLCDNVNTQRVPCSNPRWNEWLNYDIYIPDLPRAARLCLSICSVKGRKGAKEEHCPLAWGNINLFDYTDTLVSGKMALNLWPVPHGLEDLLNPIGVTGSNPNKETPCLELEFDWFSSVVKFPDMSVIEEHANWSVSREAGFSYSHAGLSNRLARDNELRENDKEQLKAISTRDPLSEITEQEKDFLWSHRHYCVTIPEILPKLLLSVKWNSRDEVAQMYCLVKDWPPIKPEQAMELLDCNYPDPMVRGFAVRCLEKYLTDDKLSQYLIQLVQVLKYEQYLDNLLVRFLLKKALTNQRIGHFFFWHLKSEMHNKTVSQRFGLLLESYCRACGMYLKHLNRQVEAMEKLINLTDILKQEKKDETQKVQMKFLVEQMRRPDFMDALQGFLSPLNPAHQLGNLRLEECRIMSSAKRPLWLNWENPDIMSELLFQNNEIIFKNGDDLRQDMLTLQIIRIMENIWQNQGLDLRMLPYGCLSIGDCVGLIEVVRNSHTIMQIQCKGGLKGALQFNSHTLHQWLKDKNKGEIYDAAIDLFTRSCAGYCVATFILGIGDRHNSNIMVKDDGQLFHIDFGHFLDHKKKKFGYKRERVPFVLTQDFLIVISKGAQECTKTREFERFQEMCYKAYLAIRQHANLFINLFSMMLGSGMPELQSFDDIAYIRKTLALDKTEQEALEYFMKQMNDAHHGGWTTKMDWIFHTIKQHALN
Chain of PIK3CD (Human) (O00329 whole entry, looked up): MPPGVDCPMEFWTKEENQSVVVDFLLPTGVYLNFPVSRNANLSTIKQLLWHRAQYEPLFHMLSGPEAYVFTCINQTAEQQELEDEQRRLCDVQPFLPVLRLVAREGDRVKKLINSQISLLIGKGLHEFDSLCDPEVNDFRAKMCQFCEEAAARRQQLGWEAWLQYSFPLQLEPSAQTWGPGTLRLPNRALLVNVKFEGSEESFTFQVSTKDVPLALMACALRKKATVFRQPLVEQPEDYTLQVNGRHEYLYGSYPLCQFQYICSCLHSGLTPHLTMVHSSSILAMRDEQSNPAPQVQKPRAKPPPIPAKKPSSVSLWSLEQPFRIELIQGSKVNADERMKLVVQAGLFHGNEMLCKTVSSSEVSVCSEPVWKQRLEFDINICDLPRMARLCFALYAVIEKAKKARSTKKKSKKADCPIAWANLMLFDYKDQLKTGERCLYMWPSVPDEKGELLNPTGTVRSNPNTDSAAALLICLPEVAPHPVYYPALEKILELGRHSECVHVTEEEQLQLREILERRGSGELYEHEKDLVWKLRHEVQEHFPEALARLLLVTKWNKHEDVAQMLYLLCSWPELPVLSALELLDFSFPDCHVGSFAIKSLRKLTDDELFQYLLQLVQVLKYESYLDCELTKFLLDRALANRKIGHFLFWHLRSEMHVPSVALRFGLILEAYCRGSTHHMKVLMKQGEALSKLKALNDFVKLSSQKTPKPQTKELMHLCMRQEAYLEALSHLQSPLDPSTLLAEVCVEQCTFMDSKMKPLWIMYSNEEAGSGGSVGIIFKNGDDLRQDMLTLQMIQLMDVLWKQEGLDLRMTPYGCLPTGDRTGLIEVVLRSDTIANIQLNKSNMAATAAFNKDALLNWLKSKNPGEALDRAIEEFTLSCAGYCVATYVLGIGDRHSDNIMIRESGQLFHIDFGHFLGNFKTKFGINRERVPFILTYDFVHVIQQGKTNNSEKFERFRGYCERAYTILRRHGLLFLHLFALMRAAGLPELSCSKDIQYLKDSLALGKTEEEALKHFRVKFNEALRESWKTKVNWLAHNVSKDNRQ

Compound | IC50 (PIK3CA (human)) | IC50 (PIK3CB (Human)) | IC50 (PIK3CD (Human)) | IC50 (PIK3CG (human)) | IC50 (EGFR (human)) | inhibition (CDK2 (human)) | inhibition (MAPK14 (human)) | IC50 (CDK2 (human))
CC(C)n1nc(-c2cccc(C(=O)NC3C=NCS3)c2)c2c(N)ncnc21 (stereo unspecified) | 1000 to 50000 nM | 1000 to 50000 nM | < 1000 nM | < 1000 nM | < 1000 nM | – | – | –
Cc1ccccc1-n1c(Cn2ncc3c(N)ncnc32)nc2cccc(C)c2c1=O | 100000 nM | 25000 nM | 240 nM | 10000 nM | – | – | – | –
O=C(c1ccccc1)c1ccc(N2CCOCC2)cc1O | – | – | – | – | – | 0.3% | -2.8% | –
O=C1NC(=S)S/C1=C/c1ccc2c(c1)N(Cc1ccc(F)c(Cl)c1)C(=O)CO2 | – | 1100 nM | – | – | – | -4.9% | -2.6% | –
Cc1ccccc1Oc1cccc2c(=O)cc(N3CCOCC3)[nH]c12 | – | – | – | 100000 nM | – | -5.3% | -1.2% | –
Cc1ccccc1-n1c(Cn2cnc3c(N)ncnc32)nc2cccc(C)c2c1=O | – | – | – | – | – | -2.4% | -4.1% | –
CC(C)n1cc(-c2cc3cc(C=O)ccc3s2)c2c(N)ncnc21 | 1000 to 50000 nM | 1000 to 50000 nM | 1000 to 50000 nM | 1000 to 50000 nM | > 50000 nM | – | – | –
O=c1cc(-c2cccc3c2Sc2ccccc2S3)oc(N2CCOCC2)c1 | 3300 nM | 1200 nM | 720 nM | 9900 nM | – | 2.6% | -1.4% | –
Cc1cc(C(C)Nc2ccccc2)c2oc(-c3ccncc3)cc(=O)c2c1 (stereo unspecified) | – | 120 nM | – | – | – | -3.1% | -0.9% | –
COc1ccccc1-n1c(CSc2ncnc3[nH]cnc23)nc2cccc(Cl)c2c1=O | – | – | – | – | – | -5.6% | -8.5% | –
COc1ccc2c(c1OC)N=C(NC(=O)c1cccnc1)N1CCN=C21 | – | – | – | – | > 50000 nM | -0.9% | 1.5% | –
CC(C)n1nc(-c2ccc(I)cc2)c2c(N)ncnc21 | 1000 to 50000 nM | 1000 to 50000 nM | < 1000 nM | 1000 to 50000 nM | 1000 to 50000 nM | – | – | –
CC(=O)Nc1nc(C)c(-c2ccc(Cl)c(S(=O)(=O)NCCO)c2)s1 | – | 590 nM | – | – | – | 1.9% | -2.9% | –
CC(C)n1nc(-c2ccc3onc(N)c3c2)c2c(N)ncnc21 | < 1000 nM | 1000 to 50000 nM | < 1000 nM | < 1000 nM | 1000 to 50000 nM | – | – | –
Oc1cccc(-c2nc(N3CCOCC3)c3oc4ncccc4c3n2)c1 | – | – | – | – | – | 1.5% | 0.2% | –
Cc1ccc([N+](=O)[O-])cc1S(=O)(=O)N(C)N=Cc1cnc2ccc(Br)cn12 | – | – | – | 76 nM | – | – | -0.3% | 1200 nM
